Structures can show the parent of a compound that is named as a salt.
What follows are compounds tested against rat TRPV1 (Rattus norvegicus (Rat), UniProt O35433). Settings: read-out: Rat IC50.
Chain of rat TRPV1 (O35433 whole entry): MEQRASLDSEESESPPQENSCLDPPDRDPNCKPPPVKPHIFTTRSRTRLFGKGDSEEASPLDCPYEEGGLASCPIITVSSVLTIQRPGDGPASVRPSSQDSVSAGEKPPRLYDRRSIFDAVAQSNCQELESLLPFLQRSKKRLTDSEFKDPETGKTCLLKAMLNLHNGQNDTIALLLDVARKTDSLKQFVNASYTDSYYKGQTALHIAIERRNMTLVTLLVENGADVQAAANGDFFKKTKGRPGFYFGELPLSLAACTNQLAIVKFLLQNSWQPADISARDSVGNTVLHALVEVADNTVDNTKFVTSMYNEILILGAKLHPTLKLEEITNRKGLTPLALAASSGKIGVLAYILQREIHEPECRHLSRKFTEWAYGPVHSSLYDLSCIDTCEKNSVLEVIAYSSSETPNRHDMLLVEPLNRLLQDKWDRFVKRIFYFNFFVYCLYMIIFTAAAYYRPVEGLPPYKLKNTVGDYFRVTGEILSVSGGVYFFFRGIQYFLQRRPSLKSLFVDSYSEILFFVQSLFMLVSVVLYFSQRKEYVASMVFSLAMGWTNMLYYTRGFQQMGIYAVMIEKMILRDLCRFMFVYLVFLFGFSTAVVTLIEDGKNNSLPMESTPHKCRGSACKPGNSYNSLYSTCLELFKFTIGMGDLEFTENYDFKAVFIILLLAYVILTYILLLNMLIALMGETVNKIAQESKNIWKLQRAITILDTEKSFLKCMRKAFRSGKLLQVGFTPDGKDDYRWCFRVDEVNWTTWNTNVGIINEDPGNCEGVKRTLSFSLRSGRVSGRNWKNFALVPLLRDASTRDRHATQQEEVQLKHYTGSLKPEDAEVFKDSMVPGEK

Compound | IC50 [nM]
CSc1nc2c(c(Nc3ccc(C(F)(F)F)cc3Cl)n1)CCN(c1ncccc1C(F)(F)F)CC2 [Example 203, N-[2-Chloro-4-(trifluoromethyl)phenyl]-2-(methylsulfanyl)-7-[3-(trifluoromethyl)pyridin-2-yl]-6,7,8,9-tetrahydro-5H-pyrimido[4,5-d]azepin-4-amine] | > 6670
FC(F)(F)c1ccc(Nc2nc(-c3ccco3)nc3c2CCN(c2ncccc2C(F)(F)F)CC3)cc1 [Example 144, 2-Furan-2-yl-N-[4-(trifluoromethyl)phenyl]-7-[3-(trifluoromethyl)pyridin-2-yl]-6,7,8,9-tetrahydro-5H-pyrimido[4,5-d]azepin-4-amine] | 240
CC(C)c1nc2c(c(Nc3ccc([N+](=O)[O-])cc3)n1)CCN(c1ncccc1C(F)(F)F)CC2 [Example 136, 2-(1-Methylethyl)-N-(4-nitrophenyl)-7-[3-(trifluoromethyl)pyridin-2-yl]-6,7,8,9-tetrahydro-5H-pyrimido[4,5-d]azepin-4-amine] | 110
CC(C)(O)c1ccc(Nc2nc(N3CCOCC3)nc3c2CCN(c2ncccc2C(F)(F)F)CC3)cc1 [Example 389, 2-{4-[2-Morpholin-4-yl-7-(3-trifluoromethyl-pyridin-2-yl)-6,7,8,9-tetrahydro-5H-pyrimido[4,5-d]azepin-4-ylamino]-phenyl}-propan-2-ol] | 320
CC(C)(C)c1ccc(Nc2ncnc3c2CCN(c2nncc4ccccc24)CC3)cc1 [Example 37, (4-tert-Butyl-phenyl)-(7-phthalazin-1-yl-6,7,8,9-tetrahydro-5H-pyrimido-[4,5-d]azepin-4-yl)-amine] | 150
FC1(F)CCCN(c2nc3c(c(Nc4ccc(C(F)(F)F)cc4)n2)CCN(c2ncccc2C(F)(F)F)CC3)C1 [Example 238, 2-(3,3-Difluoropiperidin-1-yl)-N-[4-(trifluoromethyl)phenyl]-7-[3-(trifluoromethyl)pyridin-2-yl]-6,7,8,9-tetrahydro-5H-pyrimido[4,5-d]azepin-4-amine trifluoroacetic acid salt] | 40
COCCN(C)c1nc2c(c(Nc3ccc(C(C)(C)C)cc3)n1)CCN(c1ncccc1C(F)(F)F)CC2 [Example 257, N^4-[4-(1,1-Dimethylethyl)phenyl]-N^2-methyl-N^2-[2-(methyloxy)ethyl]-7-[3-(trifluoromethyl)pyridin-2-yl]-6,7,8,9-tetrahydro-5H-pyrimido[4,5-d]azepine-2,4-diamine] | 20
CC(C)c1nc2c(c(Nc3ccc(N4CCCC4)cc3)n1)CCN(c1ncccc1C(F)(F)F)CC2 [Example 377, 2-(1-Methylethyl)-N-(4-pyrrolidin-1-ylphenyl)-7-[3-(trifluoromethyl)pyridin-2-yl]-6,7,8,9-tetrahydro-5H-pyrimido[4,5-d]azepin-4-amine] | 1410
CSc1ccc(Nc2nc(N3CCCCC3)nc3c2CCN(c2ncccc2C(F)(F)F)CC3)cc1 [Example 160, N-[4-(Methylsulfanyl)phenyl]-2-piperidin-1-yl-7-[3-(trifluoromethyl)pyridin-2-yl]-6,7,8,9-tetrahydro-5H-pyrimido[4,5-d]azepin-4-amine] | 100
CN1CCCc2ccc(Nc3nc(OC4CCOCC4)nc4c3CCN(c3ncccc3C(F)(F)F)CC4)cc21 [Example 329, N-(1-Methyl-1,2,3,4-tetrahydroquinolin-7-yl)-2-(tetrahydro-2H-pyran-4-yloxy)-7-[3-(trifluoromethyl)pyridin-2-yl]-6,7,8,9-tetrahydro-5H-pyrimido[4,5-d]azepin-4-amine] | 120
Cc1cc(C(F)(F)F)ccc1Nc1nc(N2CCCC2C(C)C)nc2c1CCN(c1ncccc1C(F)(F)F)CC2 (stereo not shown) [Example 269, 2-[2-(1-Methylethyl)pyrrolidin-1-yl]-N-[2-methyl-4-(trifluoromethyl)phenyl]-7-[3-(trifluoromethyl)pyridin-2-yl]-6,7,8,9-tetrahydro-5H-pyrimido[4,5-d]azepin-4-amine] | 180
CC(C)(C#N)c1ccc(Nc2nc(N3CCOCC3)nc3c2CCN(c2ncccc2C(F)(F)F)CC3)cc1 [Example 382, 2-Methyl-2-{4-[2-morpholin-4-yl-7-(3-trifluoromethyl-pyridin-2-yl)-6,7,8,9-tetrahydro-5H-pyrimido[4,5-d]azepin-4-ylamino]-phenyl}-propionitrile] | 40
CC(C)c1nc2c(c(Nc3ccc4c(c3)N(C)CCC4)n1)CCN(c1ncccc1C(F)(F)F)CC2 [Example 161, [2-Isopropyl-7-(3-trifluoromethyl-pyridin-2-yl)-6,7,8,9-tetrahydro-5H-pyrimido[4,5-d]azepin-4-yl]-(1-methyl-1,2,3,4-tetrahydro-quinolin-7-yl)-amine] | 130
CC1CCCN(c2nc3c(c(Nc4ccc(C(F)(F)F)cc4)n2)CCN(c2ncccc2C(F)(F)F)CC3)C1 (stereo not shown) [Example 240, 2-(3-Methylpiperidin-1-yl)-N-[4-(trifluoromethyl)phenyl]-7-[3-(trifluoromethyl)pyridin-2-yl]-6,7,8,9-tetrahydro-5H-pyrimido[4,5-d]azepin-4-amine trifluoroacetic acid salt] | 20
Cc1nc2ccccc2nc1N1CCc2ncnc(Nc3ccc(C(C)(C)C)cc3)c2CC1 [Example 32, (4-tert-Butyl-phenyl)-[7-(3-methyl-quinoxalin-2-yl)-6,7,8,9-tetrahydro-5H-pyrimido[4,5-d]azepin-4-yl]-amine] | 13
Cc1cc(C(F)(F)F)ccc1Nc1nc(N(C)C2CCCCC2)nc2c1CCN(c1ncccc1C(F)(F)F)CC2 [Example 267, N^2-Cyclohexyl-N^2-methyl-N^4-[2-methyl-4-(trifluoromethyl)phenyl]-7-[3-(trifluoromethyl)pyridin-2-yl]-6,7,8,9-tetrahydro-5H-pyrimido[4,5-d]azepine-2,4-diamine] | 1870
FC(F)(F)c1ccc(Nc2nc(N3C4CCC3CC4)nc3c2CCN(c2ncccc2C(F)(F)F)CC3)cc1 [Example 268, 2-(7-Azabicyclo[2.2.1]hept-7-yl)-N-[4-(trifluoromethyl)phenyl]-7-[3-(trifluoromethyl)pyridin-2-yl]-6,7,8,9-tetrahydro-5H-pyrimido[4,5-d]azepin-4-amine] | 150
CC(C)c1nc2c(c(Nc3cnc(C(F)(F)F)cn3)n1)CCN(c1ncccc1C(F)(F)F)CC2 [Example 191, [2-Isopropyl-7-(3-trifluoromethyl-pyridin-2-yl)-6,7,8,9-tetrahydro-5H-pyrimido[4,5-d]azepin-4-yl]-(5-trifluoromethyl-pyrazin-2-yl)-amine] | 260
CC(C)c1nc2c(c(Nc3ccc(S(=O)(=O)N(C)C)cc3)n1)CCN(c1ncccc1C(F)(F)F)CC2 [Example 154, N,N-Dimethyl-4-({2-(1-methylethyl)-7-[3-(trifluoromethyl)pyridin-2-yl]-6,7,8,9-tetrahydro-5H-pyrimido[4,5-d]azepin-4-yl}amino)benzenesulfonamide] | 1140
CSc1nc2c(c(Nc3ccc(C(C)(C)C)cc3)n1)CCN(c1ncccc1C(F)(F)F)CC2 [Example 202, N-[4-(1,1-Dimethylethyl)phenyl]-2-(methylsulfanyl)-7-[3-(trifluoromethyl)pyridin-2-yl]-6,7,8,9-tetrahydro-5H-pyrimido[4,5-d]azepin-4-amine] | 12400
CN(c1nc2c(c(Nc3ccc(C(F)(F)F)nc3)n1)CCN(c1ncccc1C(F)(F)F)CC2)C1CCCCC1 [Example 275, N^2-Cyclohexyl-N^2-methyl-7-[3-(trifluoromethyl)pyridin-2-yl]-N^4-[6-(trifluoromethyl)pyridin-3-yl]-6,7,8,9-tetrahydro-5H-pyrimido[4,5-d]azepine-2,4-diamine] | 190
CC(C)(C#N)c1ccc(Nc2nc(N3CCCCC3)nc3c2CCN(c2ncccc2C(F)(F)F)CC3)cc1 [Example 384, 2-Methyl-2-{4-[2-piperidin-1-yl-7-(3-trifluoromethyl-pyridin-2-yl)-6,7,8,9-tetrahydro-5H-pyrimido[4,5-d]azepin-4-ylamino]-phenyl}-propionitrile] | 40
FC(F)(F)c1cnc(Nc2nc(N3CCCCC3)nc3c2CCN(c2ncccc2C(F)(F)F)CC3)cn1 [Example 192, [2-Piperidin-1-yl-7-(3-trifluoromethyl-pyridin-2-yl)-6,7,8,9-tetrahydro-5H-pyrimido[4,5-d]azepin-4-yl]-(5-trifluoromethyl-pyrazin-2-yl)-amine] | 70
COc1nc2c(c(Nc3ccc(C(F)(F)F)cc3)n1)CCN(c1ncccc1C(F)(F)F)CC2 [Example 62, [2-Methoxy-7-(3-trifluoromethyl-pyridin-2-yl)-6,7,8,9-tetrahydro-5H-pyrimido[4,5-d]azepin-4-yl]-(4-trifluoromethyl-phenyl)-amine] | 53
Cc1nc2c(c(Nc3ccc(C(F)(F)F)cn3)n1)CCN(c1ncccc1C(F)(F)F)CC2 [Example 69, [2-Methyl-7-(3-trifluoromethyl-pyridin-2-yl)-6,7,8,9-tetrahydro-5H-pyrimido[4,5-d]azepin-4-yl]-(5-trifluoromethyl-pyridin-2-yl)-amine] | 500
CC(C)c1nc2c(c(Nc3ccc(C(C)(C)C)cc3)n1)CCN(c1ncccc1C(F)(F)F)CC2 [Example 8, (4-tert-Butyl-phenyl)-[2-isopropyl-7-(3-trifluoromethyl-pyridin-2-yl)-6,7,8,9-tetrahydro-5H-pyrimido[4,5-d]azepin-4-yl]-amine] | 25
CN1CCC(C)(C)c2ccc(Nc3nc(Sc4ccccc4)nc4c3CCN(c3ncccc3C(F)(F)F)CC4)cc21 [Example 352, 2-(Phenylsulfanyl)-7-[3-(trifluoromethyl)pyridin-2-yl]-N-(1,4,4-trimethyl-1,2,3,4-tetrahydroquinolin-7-yl)-6,7,8,9-tetrahydro-5H-pyrimido[4,5-d]azepin-4-amine] | > 6670
COCCN(C)c1nc2c(c(Nc3ccc(C(F)(F)F)nc3)n1)CCN(c1ncccc1C(F)(F)F)CC2 [Example 228, N^2-Methyl-N^2-[2-(methyloxy)ethyl]-7-[3-(trifluoromethyl)pyridin-2-yl]-N^4-[6-(trifluoromethyl)pyridin-3-yl]-6,7,8,9-tetrahydro-5H-pyrimido[4,5-d]azepine-2,4-diamine trifluoroacetic acid salt] | 40

From patent publication US9422293B2 (priority 2006, dated 2016)
